Experimental data published in publication PMC4213378, “Pharmacokinetics and Efficacy of the Spleen Tyrosine Kinase Inhibitor R406 after Ocular Delivery for Retinoblastoma” (Pharmaceutical Research, 2014).

Assays:
[1] = Plasma pharmacokinetics after oral or subconjunctival administration; format: in vivo, mouse; settings: local (subconjunctival), mice
Protocol: (§1) For oral delivery of R788, the target dose of 25 mg/kg R788 was administered by oral gavage as a 4 mM solution in 0.01 N citrate buffer, pH 6 ([9]). For subconjunctival administration, R788 was prepared at a concentration of 4 mM in 2% PEG-800 and filtered through a 0.22 μm filter prior to use (see Table S1). R788 was also administered subconjunctivally as a suspension at a concentration of 25 mM in 10% 2-hydroxylpropyl-β-cyclodextrin (HPβCD, Sigma-Aldrich). For subconjunctival administration, R406 phenylsulfonate salt was administered at a concentration of 800–900 μM as a cosolvent solution in a formulation of 5% Cremaphor-eL, 0.5% ethanol, 0.2% Tween 80 and 94.3% PBS, filtered through a 0.22 μm filter prior to use (see Table S2). R406 phenylsulfonate salt was also administered subconjunctivally at a dose of 31.4 mM solution in DMSO. R406 free base was administered subconjunctivally at a concentration of 6.5 mM as a 25% castor oil (Sigma-Aldrich) emulsion. This emulsion was prepared by mixing castor oil: ethanol (1:1) solution of R406 (approx. 35 mM), in vacuo evaporation of the ethanol, and centrifugation to remove any excess R406, then emulsifying the R406 oil phase in an aqueous phase comprised of Cremaphor-eL, Tween 80 and PBS (final composition of the emulsion: 25% castor oil, 5% Cremaphor-eL, 0.2% Tween-80, 69.8% PBS) by probe sonication. For intravitreal injection, R788 solution was prepared by filtering a 0.12 mM (120 μM) solution of R788 in saline through a 0.22 μm filter. […] For topical delivery, 25–30 mM suspensions were prepared in 5% HPβCD. R406 or R788 concentration in all formulations was determined by UPLC prior to study (in cases where formulation was filtered before administration, concentration was determined post-filtering) Table I.
(§2) For the systemic delivery study R788 was administered as a single bolus dose (25 mg/kg, 10 mL/kg volume) by oral gavage. For the subconjunctival administration study R788 or R406 (10 µL of formulation) was injected into the subconjunctival space of an anesthetized mouse using a Hamilton microliter syringe (Hamilton company, Reno NV). For the intravitreal administration study, R788 (5 μL of […] in saline) was administered to each eye via direct injection. To perform the intravitreal injection, mice were anesthetized, a small incision between the sclera and the cornea was created with a […] needle, and the R788 was injected into the vitreous using a Hamilton microliter syringe. For the topical administration study, R406 (2 μL of 25–30 mM suspension) was applied as a drop to the surface of each eye of an anesthetized mouse.
(§3) At serial time points (0.5, 1, 2, 4, and 8 h post-injection, n = 3 for each time point), blood was collected by terminal cardiac puncture after isoflurane anesthesia. Whole-blood samples were centrifuged immediately at 10,000×g for 5 min at 4°C to separate plasma. Once the cardiac puncture and blood collection was completed, the animal was perfused with 10 mL of saline and euthanized by cervical dislocation. Eyes were removed, rinsed in PBS, gently patted dry, then rinsed and dried again. Eyes were dissected and vitreous was collected. Plasma and vitreous samples were put on dry ice immediately after collection and stored at −80°C until analysis. For quantitative analysis methods and assay validation methods and results, see Supplementary Information.
(§4) Plasma and vitreous concentration time data were analyzed using non-compartmental analysis in WinNonlin 6.2 (Pharsight, Mountain View, CA), providing PK parameters including Cmax (maximum observed concentration), Tmax (time to reach maximum observed concentration), AUC (area under the concentration time curve) and MRT (mean residence time). AUC and AUMC (area under the concentration time first moment curve) values were estimated with the linear trapezoidal method, with parameters calculated using mean concentration values at each time point. […]

[2] = Vitreous pharmacokinetics after oral or subconjunctival administration; format: in vivo, mouse
Protocol: as §1, §2, §3, §4

[3] = co-solvent solution 0.88 mM, 8.8 nmol per eye
[4] = local (subconjunctival), DMSO 31.4 mM, 314 nmol per eye, mice
[5] = local (subconjunctival), co-solvent solution 0.88 mM, 8.8 nmol per eye, mice

What does the source list for `COc1cc(Nc2ncc(F)c(Nc3ccc4c(n3)NC(=O)C(C)(C)O4)n2)cc(OC)c1OC.O=S(=O)(O)c1ccccc1` [R406 phenylsulfonate salt]?
Cmax ([1]; DMSO 31.4 mM, 314 nmol per eye): 370 nM; Plasma AUClast ([1]; DMSO 31.4 mM, 314 nmol per eye): 0.298 µM·h; Plasma Dose normalized AUC ([1]; DMSO 31.4 mM, 314 nmol per eye): 0.5 nM∙h/nmol; Plasma Tlast ([1]; DMSO 31.4 mM, 314 nmol per eye): 4 h; Plasma Tmax ([1]; DMSO 31.4 mM, 314 nmol per eye): 30 min; Cmax [1, 3]: 79 nM; Plasma AUClast [1, 3]: 0.0429 µM·h; Plasma Dose normalized AUC [1, 3]: 2.4 nM∙h/nmol; Plasma Tlast [1, 3]: 1 h; Plasma Tmax [1, 3]: 30 min; ratio of vitreous AUC to plasma AUC relative to R788 in suspension (250 nmol per eye) ([2]; R406 salt administered locally, 314 nmol total per eye): 22 fold; Cmax [2, 4]: 892 ± 350 nM; Ratio Vitreous AUClast/Plasma AUClast [2, 4]: 6.6; Vitreous AUClast [2, 4]: 1,960 nM∙h; Vitreous Dose normalized AUC [2, 4]: 3.1 nM∙h/nmol; Vitreous MRT0-4h [2, 4]: 121 min; Vitreous Tlast [2, 4]: 4 h; Vitreous Tmax [2, 4]: 30 min; Vitreous MRT0-4h ([2]; local (subconjunctival), DMSO 31.4 mM, 314 nmol per eye, mice, listed as R406 salt): ≥ 120 min; Cmax [2, 5]: 41.3 ± 18 nM; Vitreous AUClast [2, 5]: 33.7 nM·h; Vitreous Dose normalized AUC [2, 5]: 1.9 nM∙h/nmol; Vitreous MRT0-4h [2, 5]: 46.9 min; Vitreous Tlast [2, 5]: 2 h; Vitreous Tmax [2, 5]: 30 min; Vitreous MRT0-4h ([2]; local (subconjunctival), co-solvent solution 0.88 mM, 8.8 nmol per eye, mice, listed as R406 salt): less than 1 h

For `COc1cc(Nc2ncc(F)c(Nc3ccc4c(n3)NC(=O)C(C)(C)O4)n2)cc(OC)c1OC` [R406], which “maximum intraocular concentration that could be reached from subconjunctival route” value ([2]; DMSO control, 31.4 mM R406 in DMSO, subconjunctival, mice) is on record?
The value was “approximately 1 μM”.

What about the “maximal concentration achieved in the vitreous” value ([2]; subconjunctival, 10 μl of R406 solution formulation per eye, mice) of the same molecule?
Its value is 0.05 µM.
